Source: ChEMBL document CHEMBL3431459, “Roche carnitine palmitoyltransferase modulator screening data (supplementary data associated with the publication CHEMBL2216752)”
≈ marks a conversion by molar mass, not a printed value.

How the values were obtained:
[1] = SUPPLEMENTARY: PAMPA permeability assay; assay type: physicochemical; settings: read-out: Permeability
[2] = biological target: T1, Carnitine O-palmitoyltransferase 1, muscle isoform (Homo sapiens, UniProt Q92523); test: SUPPLEMENTARY: Inhibition of Carnitine palmitoyltransferase 1, muscle isoform; design: species or system Muscle tissue
T1 sequence (Q92523 whole entry): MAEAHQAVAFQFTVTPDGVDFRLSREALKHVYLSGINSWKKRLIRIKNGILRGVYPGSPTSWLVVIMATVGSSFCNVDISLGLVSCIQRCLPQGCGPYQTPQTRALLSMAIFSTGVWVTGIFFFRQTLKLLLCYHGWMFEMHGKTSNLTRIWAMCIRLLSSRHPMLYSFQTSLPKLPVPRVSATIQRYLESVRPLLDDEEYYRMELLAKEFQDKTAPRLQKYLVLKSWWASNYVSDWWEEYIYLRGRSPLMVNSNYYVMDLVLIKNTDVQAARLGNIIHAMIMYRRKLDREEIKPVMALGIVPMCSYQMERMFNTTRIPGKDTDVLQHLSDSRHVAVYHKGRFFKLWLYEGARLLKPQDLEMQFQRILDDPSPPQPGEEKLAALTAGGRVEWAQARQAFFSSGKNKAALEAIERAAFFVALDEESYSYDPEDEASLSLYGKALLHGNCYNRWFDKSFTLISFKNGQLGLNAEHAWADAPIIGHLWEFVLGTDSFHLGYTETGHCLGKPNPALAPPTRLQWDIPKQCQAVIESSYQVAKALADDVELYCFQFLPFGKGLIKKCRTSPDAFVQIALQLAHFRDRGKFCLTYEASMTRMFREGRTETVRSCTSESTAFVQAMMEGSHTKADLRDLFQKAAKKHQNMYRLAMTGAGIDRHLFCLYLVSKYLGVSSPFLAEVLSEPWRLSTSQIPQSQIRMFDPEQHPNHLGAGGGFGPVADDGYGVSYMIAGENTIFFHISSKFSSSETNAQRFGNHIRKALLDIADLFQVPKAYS

[3] = biological target: T2, Carnitine O-palmitoyltransferase 1, liver isoform (Homo sapiens, UniProt P50416); test: (§1) SUPPLEMENTARY: Inhibition of Carnitine palmitoyltransferase 1, liver isoform
T2 sequence (P50416 whole entry): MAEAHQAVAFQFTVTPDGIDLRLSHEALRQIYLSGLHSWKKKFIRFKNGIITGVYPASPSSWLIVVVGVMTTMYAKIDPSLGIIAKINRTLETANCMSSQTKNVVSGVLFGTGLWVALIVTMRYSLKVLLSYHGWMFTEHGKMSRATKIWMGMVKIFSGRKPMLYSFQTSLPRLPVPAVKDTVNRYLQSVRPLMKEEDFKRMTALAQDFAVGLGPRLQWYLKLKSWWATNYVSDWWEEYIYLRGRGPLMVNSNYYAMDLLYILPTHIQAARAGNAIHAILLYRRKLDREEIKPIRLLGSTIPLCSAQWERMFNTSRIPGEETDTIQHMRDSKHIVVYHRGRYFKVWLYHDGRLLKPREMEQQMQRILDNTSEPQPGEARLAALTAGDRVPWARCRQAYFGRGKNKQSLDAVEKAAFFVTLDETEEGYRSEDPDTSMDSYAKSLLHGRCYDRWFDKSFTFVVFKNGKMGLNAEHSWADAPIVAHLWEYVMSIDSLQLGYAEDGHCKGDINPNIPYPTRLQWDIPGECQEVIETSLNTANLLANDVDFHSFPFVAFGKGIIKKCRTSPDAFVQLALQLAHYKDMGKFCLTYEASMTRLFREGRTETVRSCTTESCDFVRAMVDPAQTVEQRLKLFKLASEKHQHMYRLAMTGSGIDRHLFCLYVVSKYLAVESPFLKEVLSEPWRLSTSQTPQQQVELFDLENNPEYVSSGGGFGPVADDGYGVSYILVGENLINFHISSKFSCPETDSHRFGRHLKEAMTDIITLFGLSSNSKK

[4] = biological target: T3, Carnitine O-palmitoyltransferase 1, liver isoform (Rattus norvegicus, UniProt P32198); test: as §1
T3 sequence (P32198 whole entry): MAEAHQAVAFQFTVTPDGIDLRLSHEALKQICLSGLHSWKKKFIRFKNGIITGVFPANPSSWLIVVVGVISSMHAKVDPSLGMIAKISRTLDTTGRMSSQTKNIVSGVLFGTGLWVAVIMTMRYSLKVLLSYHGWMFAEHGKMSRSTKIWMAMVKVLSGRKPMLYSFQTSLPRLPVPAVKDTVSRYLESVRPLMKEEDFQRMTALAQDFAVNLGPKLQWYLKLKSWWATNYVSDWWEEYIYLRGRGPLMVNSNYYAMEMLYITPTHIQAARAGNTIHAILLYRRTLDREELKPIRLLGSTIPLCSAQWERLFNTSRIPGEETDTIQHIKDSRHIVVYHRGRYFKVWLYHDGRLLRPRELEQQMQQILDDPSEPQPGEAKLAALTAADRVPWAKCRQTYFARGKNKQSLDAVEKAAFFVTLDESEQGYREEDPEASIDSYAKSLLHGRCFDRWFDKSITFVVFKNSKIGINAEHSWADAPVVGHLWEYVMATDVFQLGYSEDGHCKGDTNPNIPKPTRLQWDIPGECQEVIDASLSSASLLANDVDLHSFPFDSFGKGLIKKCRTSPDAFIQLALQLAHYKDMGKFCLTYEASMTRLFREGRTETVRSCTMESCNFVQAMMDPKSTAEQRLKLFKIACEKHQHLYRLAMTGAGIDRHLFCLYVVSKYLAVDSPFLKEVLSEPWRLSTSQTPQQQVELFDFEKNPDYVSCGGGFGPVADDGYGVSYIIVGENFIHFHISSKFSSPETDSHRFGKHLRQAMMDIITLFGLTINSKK

[5] = SUPPLEMENTARY: Lyophilisation Solubility Assay (LYSA); assay type: physicochemical; settings: read-out: Kinetic_solubility
[6] = SUPPLEMENTARY: Lipophilicity (log D) Determination by high-throughput shake-flask; assay type: physicochemical; settings: octanol/water
[7] = biological target: T4, Carnitine O-palmitoyltransferase 2, mitochondrial (Homo sapiens, UniProt P23786); test: (§2) SUPPLEMENTARY: Inhibition of Carnitine palmitoyltransferase 2
T4 sequence (P23786 whole entry): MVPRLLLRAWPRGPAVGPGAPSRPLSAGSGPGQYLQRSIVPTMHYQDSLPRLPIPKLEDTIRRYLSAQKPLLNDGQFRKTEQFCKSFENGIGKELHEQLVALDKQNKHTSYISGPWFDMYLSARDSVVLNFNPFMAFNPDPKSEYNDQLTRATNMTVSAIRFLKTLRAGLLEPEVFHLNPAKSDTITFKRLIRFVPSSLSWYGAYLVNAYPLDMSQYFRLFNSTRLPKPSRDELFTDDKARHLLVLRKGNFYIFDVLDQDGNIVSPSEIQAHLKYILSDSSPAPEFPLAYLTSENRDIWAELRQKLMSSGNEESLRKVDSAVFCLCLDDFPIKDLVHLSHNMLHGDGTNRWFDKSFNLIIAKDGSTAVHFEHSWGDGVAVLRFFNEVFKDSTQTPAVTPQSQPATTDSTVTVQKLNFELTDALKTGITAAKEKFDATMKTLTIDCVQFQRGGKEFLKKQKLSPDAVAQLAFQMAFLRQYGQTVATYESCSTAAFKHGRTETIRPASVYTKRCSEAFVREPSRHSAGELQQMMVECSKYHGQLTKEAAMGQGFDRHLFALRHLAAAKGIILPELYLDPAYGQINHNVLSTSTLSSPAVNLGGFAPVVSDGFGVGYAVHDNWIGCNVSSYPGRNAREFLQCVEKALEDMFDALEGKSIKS

[8] = biological target: T5, Carnitine O-palmitoyltransferase 2, mitochondrial (Rattus norvegicus, UniProt P18886); test: as §2
T5 sequence (P18886 whole entry): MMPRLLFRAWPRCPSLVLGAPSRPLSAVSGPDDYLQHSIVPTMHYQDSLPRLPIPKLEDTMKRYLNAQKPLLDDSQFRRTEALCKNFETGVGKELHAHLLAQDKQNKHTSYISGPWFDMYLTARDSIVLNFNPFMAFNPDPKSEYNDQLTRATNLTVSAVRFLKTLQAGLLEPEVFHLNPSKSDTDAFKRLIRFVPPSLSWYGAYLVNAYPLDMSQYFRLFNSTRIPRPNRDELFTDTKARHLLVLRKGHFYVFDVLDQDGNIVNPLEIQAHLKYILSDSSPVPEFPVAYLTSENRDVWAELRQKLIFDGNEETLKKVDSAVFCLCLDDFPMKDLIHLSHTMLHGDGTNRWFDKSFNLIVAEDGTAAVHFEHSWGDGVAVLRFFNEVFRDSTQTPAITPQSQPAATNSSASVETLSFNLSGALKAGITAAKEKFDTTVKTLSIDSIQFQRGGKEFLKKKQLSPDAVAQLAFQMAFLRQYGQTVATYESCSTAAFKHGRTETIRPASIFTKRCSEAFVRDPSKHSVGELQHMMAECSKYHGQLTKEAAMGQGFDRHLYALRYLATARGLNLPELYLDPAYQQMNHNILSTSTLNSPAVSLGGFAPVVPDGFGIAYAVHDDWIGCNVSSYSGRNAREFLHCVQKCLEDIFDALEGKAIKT

SMILES	Papp [1] [×10⁻⁶ cm/s]	IC50 [2] [µM]	IC50 [3] [µM]	IC50 [4] [µM]	solubility kinetic [5] [µg/mL]	logD [6]	IC50 [7] [µM]	IC50 [8] [µM]
COc1ccc(Cl)cc1Sc1c[nH]c2ccc(C(=O)Nc3ccc(C(=O)O)cc3)cc12	0.18	2.52	0.2	0.148	6 (≈ 13.2 µM)	2.21	4.47	22.9
O=C(O)c1ccc(NC(=O)c2cccc(S(=O)(=O)N3CCCc4ccc(C(F)(F)F)cc43)c2)cc1	3.63	4.93	0.0342	0.122	44 (≈ 87.2 µM)	1.93	5.73	2.92
CC(=O)Nc1cccc(-n2nnc([C@H]3CCCCN3C(=O)COc3ccccc3)n2)c1	3.5	> 100	0.111	0.0714	26 (≈ 61.8 µM)	3	8.06	> 100
COc1ccc(Cl)cc1CN1C(=O)C(C)(C)c2ccc(C(=O)Nc3ccc(C(=O)O)cc3)cc21	0.94	2.17	0.0671	0.126	136 (≈ 284 µM)	1.83	5.51	9.03
O=C(COc1ccccc1)N1CCCC[C@@H]1c1nc(-c2ccc3[nH]cnc3c2)no1	2.8	> 100	0.0261	0.106	9.55 (≈ 23.7 µM)	3.08	19.1	19.2
O=C(COc1ccccc1)N1CCCC[C@@H]1c1nc(-c2ccc(S(=O)(=O)NCCO)cc2)no1	2.27	> 100	0.0608	0.406	65 (≈ 134 µM)	2.29	13.4	49.3
N#Cc1cncc(-c2noc([C@H]3CCCCN3C(=O)COc3ccccc3)n2)c1	6.36	> 100	0.232	0.759	11 (≈ 28.2 µM)	2.49	> 100	> 100
O=C(O)Cc1csc(NC(=O)c2ccc3c(c2)N(S(=O)(=O)c2cccc(Cl)c2)CC3)n1	2.91	0.601	0.0407	0.0258	260 (≈ 544 µM)	0.34	> 100	> 100
COc1ccc(Cl)cc1S(=O)(=O)N1CC(C)c2ccc(C(=O)Nc3ccc(C(=O)O)c(Cl)c3)cc21 (configuration not stated)	1.77	1.31	0.19	0.063	528 (≈ 986 µM)	0.57	0.686	1.63
COc1ccc(Cl)cc1S(=O)(=O)N1COc2ccc(C(=O)Nc3ccn(CC(=O)O)n3)cc21	0.03	38	0.136	0.135	521 (≈ 1060 µM)	-1.22	> 100	> 100
CC(=O)NCc1cccc(-c2n[nH]c([C@H]3CCCCN3C(=O)COc3ccccc3)n2)c1	4.04	> 100	0.19	0.428	295 (≈ 680 µM)	2.17	54.3	> 100
COc1ccc(Cl)cc1S(=O)(=O)N1CCS(=O)(=O)c2ccc(C(=O)Nc3ccc(C(=O)O)c(F)c3)cc21	0.21	1.74	0.102	0.0613	13 (≈ 22.8 µM)	-0.27	4.45	37.4
COc1ccc(Cl)cc1S(=O)(=O)N1CCc2ccc(C(=O)Nc3ccc(CC(=O)O)cc3)cc21	4.09	2.13	0.0974	0.0323	532 (≈ 1060 µM)	0.33	> 100	> 100
COc1ccc(Cl)cc1CN1C(=O)CS(=O)(=O)c2ccc(C(=O)Nc3nc(CC(=O)O)cs3)cc21	0.85	9.62	0.219	0.0898	417 (≈ 778 µM)	-0.29	> 100	> 100
